# Assay results: patent US20230365938A1, “METHODS OF FORMING COMPOSITIONS CONTAINING COLLAGEN” (priority 2019, published 2023)
# Key:
# [1] = system: Human mesenchymal stem cells (hMSC); experiment: Cell proliferation (MTS) of hMSC treated with RSV, NAM or RSV+NAM; type: cell-based; details: 48 hours, serum-free media, normoxia, increasing dose, vs DMSO control
# Method: Human mesenchymal stem cells (hMSC) were obtained from American Type Culture Collection (ATCC, Manassas, VA). Cells were stored in liquid nitrogen until use. MSCs were maintained in minimum essential medium, alpha (aMEM, Corning®, Corning, NY) supplemented with 16% Fetal Bovine Serum (FBS, VWR, Radnor, PA) and 4 mM L-glutamine (Sigma-Aldrich, St. Louis, MO). Medium was changed every other day, and once the cells reached 70-80% confluence, the cells were detached by trypsin-EDTA solution (VWR, Radnor, PA). hMSC were seeded (density 5,000 cells/cm^2) on 25 cm^2. When cells reached 80% confluency (4-5 days), they were washed two times with 5 ml of PBS. The growth media was then changed to serum-free media with or without a product treatment (5 ml), and the cells were cultured for 48 hours. […] Cell proliferation was assessed using CellTiter 96® AQueous Non-Radioactive Cell Proliferation Assay (MTS, Promega, Madison WI) based on the redox conversion of a tetrazolium salt into formazan product. […] The cells were incubated for 2 hours, and the absorbance of each well at 490 nm was measured using a SpectraMax® 190 Microplate Reader. Cell proliferation was determined using MTS, colorimetric assay after the cells were treated for 48 hours in serum free media with the vehicle (DMSO) as control, resveratrol (RSV), nicotinamide (NAM), or a combination (RSV+NAM) in serum-free media under normoxia. […]
# hMSC secretome = experiment: LC-MS/MS analysis of secreted proteins in the secretome; type: cell-based, human; details: n=4; for number of down-regulated proteins (Fold ≤ 1.5) vs control / number of up-regulated proteins (Fold ≥ 1.5) vs control: vs DMSO under normoxia
# Method: Human mesenchymal stem cells (hMSC) were obtained from American Type Culture Collection (ATCC, Manassas, VA). Cells were stored in liquid nitrogen until use. MSCs were maintained in minimum essential medium, alpha (aMEM, Corning®, Corning, NY) supplemented with 16% Fetal Bovine Serum (FBS, VWR, Radnor, PA) and 4 mM L-glutamine (Sigma-Aldrich, St. Louis, MO). Medium was changed every other day, and once the cells reached 70-80% confluence, the cells were detached by trypsin-EDTA solution (VWR, Radnor, PA). hMSC were seeded (density 5,000 cells/cm^2) on 25 cm^2. When cells reached 80% confluency (4-5 days), they were washed two times with 5 ml of PBS. The growth media was then changed to serum-free media with or without a product treatment (5 ml), and the cells were cultured for 48 hours. Experiments were performed in two different environments, normoxia (about 18.6% oxygen) and hypoxia (5% oxygen). Cells were incubated at 37° C. and 5% CO2 throughout the experiment.
# To characterize the hMSC secretome, condition media (CM or secretome) was collected from cells cultured under FBS-free for 48 hours. CM was filtered through a 0.45 μm syringe filter to remove residual cells and cell debris. The resulting condition media was concentrated and washed 3 times with 50 mM ammonium bicarbonate using Corning® Spin-X® UF Concentrators (10K Dalton, Corning®, Corning, NY) at 3,000 g for 25 minutes each cycle. Following, the secretome was collected from the concentrator, frozen at −80° C., and lyophilized 24 hours. Lyophilized secretome was stored at −80° C. For functional experiments with CM, normal hMSCs (passages 6-8) were used.
# The amount of secretome was normalized in all samples, and 50 μl of the sample were pipetted in microcentrifuge units (Millipore, Burlington, MA) and digested following the filter aided sample preparation (FASP) protein digestion kit from Expedeon (San Diego, CA). Samples were reduced using 0.1 M dithiothreitol for 15 minutes at 50° C. […] was achieved using iodoacetamide for 20 minutes at room temperature following by 2× washing steps with 8 M urea and 50 mM ammonium bicarbonate. The samples were then enzymatically digested with trypsin at 37° C. overnight. Finally, samples were collected by spinning the microcentrifuge units at 14000 rcf for 20 minutes with a final wash with distilled water and freeze-dried. Prior to LC-MS/MS analysis, samples were resuspended in 0.1% formic acid.
# Mass spectrometry analysis was executed in the orbitrap Thermo Velos Pro system (Thermo Fisher Scientific, Waltman, MA) using Thermo Xcalibur™ Roadmap software (Thermo Fisher Scientific, Waltman, MA). For this study, secretome from 4 independent experiments were processed and analyzed independently.
# Mass spectra were analyzed using Proteome Discoverer™ 2.1 (Thermo Fisher Scientific, Waltman, MA) label-free differential protein expression analysis and the Sequest™ HT. Xcalibur™ raw data collected from the mass spectrometer was imported from the MS spectra and processed as followed. Only features compromising charges of 2+ and 3+ were selected. The mass precision was 2 ppm and mass tolerance 0.02 Da for fragment mass tolerance. Trypsin was set as the digestion enzyme with a maximum of two allowed missed cleavages with six as the minimum peptide length. Cysteine carbamidomethylation (C) was set as a fixed modification, and N-terminal acetylation and methionine oxidation were allowed as variable modifications. The spectra were searched using the Sequest™ HT search engine against the human Uniprot sequence database. Percolator node was used to filter data using 0.1 for FDR at the peptide and protein level. For relative quantification in a label-free analysis, the precursor ion area detector node was used, and ratios were calculated by dividing the treated samples vs. the control group (DMSO under normoxia). […]
Compound,cell proliferation (MTS) versus control [1],Total proteins (number of proteins secreted) (hMSC secretome; Hypoxia (5% O2)),Unique vs control (number of unique proteins) (hMSC secretome; Hypoxia (5% O2)),number of down-regulated proteins (Fold ≤ 1.5) vs control (hMSC secretome; Hypoxia (5% O2)),number of up-regulated proteins (Fold ≥ 1.5) vs control (hMSC secretome; Hypoxia (5% O2)),Total proteins (number of proteins secreted) (hMSC secretome; Normoxia),Unique vs control (number of unique proteins) (hMSC secretome; Normoxia),number of down-regulated proteins (Fold ≤ 1.5) vs control (hMSC secretome; Normoxia),number of up-regulated proteins (Fold ≥ 1.5) vs control (hMSC secretome; Normoxia)
NC(=O)c1cccnc1 [nicotinamide],not a significant difference,–,–,–,–,–,–,–,–
"Oc1ccc(/C=C/c2cc(O)cc(O)c2)cc1 [RSV, 3,5,4′-trihydroxy-trans-stilbene]",not a significant difference,55,2,0,30,51,2,3,7
